One data set has as its target T1, FPRL-1 receptor (Homo sapiens, UniProt P25090).
T1 sequence (P25090 1-351): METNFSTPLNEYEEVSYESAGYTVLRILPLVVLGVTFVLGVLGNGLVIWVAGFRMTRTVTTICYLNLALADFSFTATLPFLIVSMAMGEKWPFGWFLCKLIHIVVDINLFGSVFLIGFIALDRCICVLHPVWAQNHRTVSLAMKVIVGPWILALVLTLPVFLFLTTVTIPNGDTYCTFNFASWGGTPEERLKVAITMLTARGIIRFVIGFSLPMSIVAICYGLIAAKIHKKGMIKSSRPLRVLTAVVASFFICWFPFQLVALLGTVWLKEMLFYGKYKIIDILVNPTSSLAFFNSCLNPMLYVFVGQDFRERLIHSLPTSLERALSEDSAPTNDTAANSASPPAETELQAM

Data set [1] deals with human orphan receptor FPRL-1. Kind of data set: Growth on -Leu-Ura-His + 2.5 mM AT, yeast expressing FPRL-1. As to conditions: yeast bearing FPRL-1-encoding plasmid (CY6571), plasmids A1 and A3-A10. The class given is cell-based. The text has this:
The yeast strain CY1141 (MATalpha far1*1441 tbt1-1 fus1-HIS3 can 1 ste14::trp1:;LYS2 ste3*1156 gpa1(41)-Galphai2 lys2 ura3 leu2 trp1 his3) was used in the experiments that follow. CY1141 contains a pheromone inducible HIS3 gene, fus1-HIS3 integrated at the FUS1 locus and a hybrid gene encoding the first 41 amino acids of GPA1 (yeast G alpha) fused to sequence encoding human G alphai2 (lacking codons encoding the N-terminal 33 amino acids) replacing GPA1 at its chromosomal locus. The yeast STE14 gene is disrupted to lower the basal level of signaling through the pheromone response pathway. The yeast a-factor receptor gene, STE3, is deleted. CY1141 was transformed with Cadus 2311 to yield CY6571, a strain expressing the human orphan receptor, FPRL-1.
It was determined that the yeast growth on selective media that resulted from LIRMA was eliminated by the additional of 2.5 millimolar concentrations of 3-aminotriazole (AT). AT is an inhibitor of the HIS3 gene product that serves to reduce background growth. […]
CY6571 was inoculated to 10 mls of standard synthetic media (SD) lacking leucine (-Leu) and incubated overnight at 30° C. […] The OD600 of each cell suspension was determined and crude plasmid isolations were done on 8-16 OD units of cells for each pool. […]

For a further data set, the system named is human thrombin receptor. Kind of data set: Growth on -Leu-Ura-His + 2.5 mM AT, yeast expressing thrombin receptor. The class given is cell-based. As to conditions: yeast bearing thrombin receptor plasmid (CY7467). The text has this: The amplified product was purified by gel electrophoresis, restricted with NcoI and BamHI and ligated to NcoI and BamHI-cut CADUS 1871, a PGK promoter-driven expression vector, to yield CADUS 2260. Cloning into CADUS 1871 introduces a novel stop codon preceded by the triplet GlySerVal after the authentic carboxy terminal codon of the human thrombin receptor (threonine). In addition, an invertase signal sequence is fused to the authentic amino terminus of the receptor.
The yeast strain CY1141 (MATalpha far1*1442 tbt1-1 fus1-HIS3 can1 ste14::trp1::LYS2 ste3* 1156 gpal(41)-Galphai2 lys2 ura3 leu2 trp1 his3) was transformed with CADUS 2260 to yield strain CY7467, expressing the human thrombin receptor. CY7467 was inoculated to 10 mls of standard synthetic media (SD) lacking leucine (-Leu) and incubated overnight at 30 C. […] The OD600 of each cell suspension was determined and crude plasmid isolations were done on 8-16 OD units of cells for each pool. […]
Strain CY7467 was transformed with […] of each plasmid pool by electroporation. […] The cells from each of these plates were scraped into 5 mls of H2 O, the OD600 of the cell suspensions were determined and crude plasmid isolations were done on 8-16 OD units of yeast cells. […]

Data set [2] concerns CY6571 yeast growth (HIS3 gene product). Kind of data set: Elimination of LIRMA growth, strain CY6571 (FPRL-1). The class given is cell-based, S. cerevisiae. The note with it: CY6571, selective media. The protocol:
It was determined that the yeast growth on selective media that resulted from LIRMA was eliminated by the additional of 2.5 millimolar concentrations of 3-aminotriazole (AT). AT is an inhibitor of the HIS3 gene product that serves to reduce background growth. Therefore, selection protocols aimed at the identification of surrogate ligands for the FPRL-1 receptor were carried out at this concentration of AT.

The test system of data set [3] is CY7467 yeast growth (HIS3 gene product). Kind of data set: Elimination of LIRMA growth, strain CY7467 (thrombin receptor). The class given is cell-based, S. cerevisiae. As to conditions: CY7467, selective media. How it is done:
It was determined that the yeast growth on selective media that resulted from LIRMA was eliminated by the addition of 2.5 millimolar concentrations of 3-aminotriazole (AT). AT is an inhibitor of the HIS3 gene product that serves to reduce background growth. Therefore, selection protocols aimed at the identification of novel peptide ligands for the human thrombin receptor were carried out at this concentration of AT.

Read-outs that look alike come from different tables or passages of the source. Where no end group is shown, it is not given here.

Method for FPRL-1 receptor: For verificatiin of pheromone pathway activation and quantification of the stimulation, the activity of the fus1 promoter was determined colorimetrically using a fus1-lacZ fusion in a parallel set of test strains. CY1141, described above, was used as the recipient strain for these experiments. […] Four strains (bearing the identical plasmids) were grown overnight in minimal media lacking leucine, uracil, and tryptophan, pH8.6. The overnight cultures were used to inoculate -Leu -Ura -Trp pH6.8 media and these new cultures were grown for approximately 4.5-5 hours to an OD600 of less than 0.4.

Take SLLWLTCRPWEAM [peptide A1]: the β-galactosidase activity with FPRL-1 receptor (R+ L+ (CY1141/CADUS 2311/peptide A1/CADUS 1584)) was found to be 28 units; in the data set with FPRL-1 receptor (R- L+ (CY1141/CADUS 1289/peptide A1/CADUS 1584)), 3.5 units. In addition, the “stimulation over background levels of β-galactosidase” value in the data set with FPRL-1 receptor (yeast cy1141) was 8 fold. Further, the “growth advantage on media lacking histidine” value in data set [1] was “conferred a growth advantage”.

For “VCPARYVLPGPVL [SEQ ID NO:45, peptide from random library, conferring growth via human thrombin receptor]”, the “growth advantage on media lacking histidine” value in the data set on human thrombin receptor is reported as “conferred a growth advantage”.

In the case of `Nc1nc[nH]n1` [3-aminotriazole], the “concentration at which LIRMA growth was eliminated” value in data set [2] and in data set [3] was 2.5 millimolar in each case.

(Values after US6159705A, “Recombinant yeast cells for identifying receptor effectors” (Cadus Pharmaceutical Corporation, priority 1997, dated 2000).)
